# Reference: article PMC5078040 (Oncotarget, 2016)
# Assays:
# [1] = molecular target: T1, CSNK1A1L (Homo sapiens, UniProt Q8N752); assay: KinomeScan; format: binding; details: 1uM
# T1 construct: purchased DiscoveRx KINOMEscan
# [2] = molecular target: T2, GRK1 (Homo sapiens, UniProt Q15835); assay: KinomeScan; format: binding; details: 1uM
# T2 construct: purchased DiscoveRx KINOMEscan
# [3] = molecular target: T3, ROCK2 (Homo sapiens, UniProt O75116); assay: KinomeScan; format: binding; details: 1uM
# T3 construct: purchased DiscoveRx KINOMEscan
# [4] = molecular target: T4, p38-beta (Homo sapiens, UniProt Q15759); assay: KinomeScan; format: binding; details: 1uM
# T4 construct: purchased DiscoveRx KINOMEscan
# [5] = molecular target: T5, MUSK (Homo sapiens, UniProt O15146); assay: KinomeScan; format: binding; details: 1uM
# T5 construct: purchased DiscoveRx KINOMEscan
# [6] = molecular target: T6, SIK2 (Homo sapiens, UniProt Q9H0K1); assay: KinomeScan; format: binding; details: 1uM
# T6 construct: purchased DiscoveRx KINOMEscan
# [7] = molecular target: T7, FLT3 (Homo sapiens, UniProt P36888); assay: KinomeScan; format: binding; details: 1uM
# T7 construct: purchased DiscoveRx KINOMEscan
# [8] = molecular target: T8, ABL1(T315I)-nonphosphorylated (Homo sapiens, UniProt P00519, T315I); assay: KinomeScan; format: binding; details: 1uM
# T8 construct: purchased DiscoveRx KINOMEscan
# [9] = molecular target: T9, DYRK2 (Homo sapiens, UniProt Q92630); assay: KinomeScan; format: binding; details: 1uM
# T9 construct: purchased DiscoveRx KINOMEscan
# [10] = molecular target: T10, PAK4 (Homo sapiens, UniProt O96013); assay: KinomeScan; format: binding; details: 1uM
# T10 construct: purchased DiscoveRx KINOMEscan
# [11] = molecular target: T11, EPHB4 (Homo sapiens, UniProt P54760); assay: KinomeScan; format: binding; details: 1uM
# T11 construct: purchased DiscoveRx KINOMEscan
# [12] = molecular target: T12, MRCKB (Homo sapiens, UniProt Q9Y5S2); assay: KinomeScan; format: binding; details: 1uM
# T12 construct: purchased DiscoveRx KINOMEscan
# [13] = molecular target: T13, PIK3CD (Homo sapiens, UniProt O00329); assay: KinomeScan; format: binding; details: 1uM
# T13 construct: purchased DiscoveRx KINOMEscan
# [14] = molecular target: T14, ABL1(M351T)-phosphorylated (Homo sapiens, UniProt P00519, M351T); assay: KinomeScan; format: binding; details: 1uM
# T14 construct: purchased DiscoveRx KINOMEscan
# [15] = molecular target: T15, HCK (Homo sapiens, UniProt P08631); assay: KinomeScan; format: binding; details: 1uM
# T15 construct: purchased DiscoveRx KINOMEscan
# [16] = molecular target: T16, HPK1 (Homo sapiens, UniProt Q92918); assay: KinomeScan; format: binding; details: 1uM
# T16 construct: purchased DiscoveRx KINOMEscan
# [17] = molecular target: T17, CSNK1A1 (Homo sapiens, UniProt P48729); assay: KinomeScan; format: binding; details: 1uM
# T17 construct: purchased DiscoveRx KINOMEscan
# [18] = molecular target: T18, EGFR(S752-I759del) (Homo sapiens, UniProt P00533, DEL752-759); assay: KinomeScan; format: binding; details: 1uM
# T18 construct: purchased DiscoveRx KINOMEscan
# [19] = molecular target: T19, AAK1 (Homo sapiens, UniProt Q2M2I8); assay: KinomeScan; format: binding; details: 1uM
# T19 construct: purchased DiscoveRx KINOMEscan
# [20] = molecular target: T20, NEK4 (Homo sapiens, UniProt P51957); assay: KinomeScan; format: binding; details: 1uM
# T20 construct: purchased DiscoveRx KINOMEscan
# [21] = molecular target: T21, FLT3(R834Q) (Homo sapiens, UniProt P36888, R834Q); assay: KinomeScan; format: binding; details: 1uM
# T21 construct: purchased DiscoveRx KINOMEscan
# [22] = molecular target: T22, ABL1(Q252H)-nonphosphorylated (Homo sapiens, UniProt P00519, Q252H); assay: KinomeScan; format: binding; details: 1uM
# T22 construct: purchased DiscoveRx KINOMEscan
# [23] = molecular target: T23, LATS1 (Homo sapiens, UniProt O95835); assay: KinomeScan; format: binding; details: 1uM
# T23 construct: purchased DiscoveRx KINOMEscan
# [24] = molecular target: T24, TBK1 (Homo sapiens, UniProt Q9UHD2); assay: KinomeScan; format: binding; details: 1uM
# T24 construct: purchased DiscoveRx KINOMEscan
# [25] = molecular target: T25, DAPK1 (Homo sapiens, UniProt P53355); assay: KinomeScan; format: binding; details: 1uM
# T25 construct: purchased DiscoveRx KINOMEscan
# [26] = molecular target: T26, CLK4 (Homo sapiens, UniProt Q9HAZ1); assay: KinomeScan; format: binding; details: 1uM
# T26 construct: purchased DiscoveRx KINOMEscan
# [27] = molecular target: T27, TYK2(JH1domain-catalytic) (Homo sapiens, UniProt P29597); assay: KinomeScan; format: binding; details: 1uM
# T27 construct: TYK2(JH1domain-catalytic); purchased DiscoveRx KINOMEscan
# [28] = molecular target: T28, MET(M1250T) (Homo sapiens, UniProt P08581, M1250T); assay: KinomeScan; format: binding; details: 1uM
# T28 construct: purchased DiscoveRx KINOMEscan
# [29] = molecular target: T29, ACVRL1 (Homo sapiens, UniProt P37023); assay: KinomeScan; format: binding; details: 1uM
# T29 construct: purchased DiscoveRx KINOMEscan
# [30] = molecular target: PI3Kδ (Homo sapiens, UniProt O00329); assay: PI3Ks isoform in cell EC50 assay (AKT phosphorylation, Western Blotting); format: cell-based; design: endogenous in cells; host or cells: Raji; details: Raji cells, 1μg/ml anti-IgM, Akt phosphorylation at T308; read-out: cellular EC50 PI3K Delta
# [31] = molecular target: T30, PAK6 (Homo sapiens, UniProt Q9NQU5); assay: KinomeScan; format: binding; details: 1uM
# T30 construct: purchased DiscoveRx KINOMEscan
# [32] = molecular target: T31, RSK1(Kin.Dom.2-C-terminal) (Homo sapiens, UniProt Q15418); assay: KinomeScan; format: binding; details: 1uM
# T31 construct: RSK1(Kin.Dom.2-C-terminal); purchased DiscoveRx KINOMEscan
# [33] = molecular target: T32, WNK3 (Homo sapiens, UniProt Q9BYP7); assay: KinomeScan; format: binding; details: 1uM
# T32 construct: purchased DiscoveRx KINOMEscan
# [34] = molecular target: T33, CHEK2 (Homo sapiens, UniProt O96017); assay: KinomeScan; format: binding; details: 1uM
# T33 construct: purchased DiscoveRx KINOMEscan
# [35] = molecular target: T34, STK16 (Homo sapiens, UniProt O75716); assay: KinomeScan; format: binding; details: 1uM
# T34 construct: purchased DiscoveRx KINOMEscan
# [36] = molecular target: T35, CSF1R (Homo sapiens, UniProt P07333); assay: KinomeScan; format: binding; details: 1uM
# T35 construct: purchased DiscoveRx KINOMEscan
# [37] = molecular target: T36, PI4KA (Homo sapiens, UniProt P42356); assay: ADP-glo biochemical assay
# T36 construct: purchased Invitrogen
# Protocol: The reaction in each tube was started immediately by adding ATP and kept going for an hour under 37°C. After the tube cooled for 5 minutes at room temperature, 5 μL solvent reactions were carried out in a 384-well plate. Then 5 μL of ADP-Glo™ reagent was added into each well to stop the reaction and consume the remaining ADP within 40 minutes. At the end, 10 μL of kinase detection reagent was added into the well and incubated for 30 minutes to produce a luminescence signal. Luminescence signal was measured with an automated plate reader (Perkin-Elmer Envision) and each measurement was performed in triplicate.
# [38] = molecular target: T37, CASK (Homo sapiens, UniProt O14936); assay: KinomeScan; format: binding; details: 1uM
# T37 construct: purchased DiscoveRx KINOMEscan
# [39] = molecular target: T38, BRK (Homo sapiens, UniProt Q13882); assay: KinomeScan; format: binding; details: 1uM
# T38 construct: purchased DiscoveRx KINOMEscan
# T38 sequence (Q13882 whole entry): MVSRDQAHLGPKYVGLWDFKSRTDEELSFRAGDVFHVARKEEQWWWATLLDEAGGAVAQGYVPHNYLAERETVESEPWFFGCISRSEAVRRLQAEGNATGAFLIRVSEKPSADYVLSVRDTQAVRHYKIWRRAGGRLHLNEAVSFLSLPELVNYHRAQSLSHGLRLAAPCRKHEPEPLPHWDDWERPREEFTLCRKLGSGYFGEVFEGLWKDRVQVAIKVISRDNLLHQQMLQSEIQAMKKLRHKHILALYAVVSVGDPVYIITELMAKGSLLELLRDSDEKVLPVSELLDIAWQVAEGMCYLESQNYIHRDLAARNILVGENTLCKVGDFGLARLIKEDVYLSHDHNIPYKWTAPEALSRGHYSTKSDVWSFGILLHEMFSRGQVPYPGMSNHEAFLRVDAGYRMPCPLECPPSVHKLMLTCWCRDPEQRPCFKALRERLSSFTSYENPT
# T15 sequence (P08631 whole entry): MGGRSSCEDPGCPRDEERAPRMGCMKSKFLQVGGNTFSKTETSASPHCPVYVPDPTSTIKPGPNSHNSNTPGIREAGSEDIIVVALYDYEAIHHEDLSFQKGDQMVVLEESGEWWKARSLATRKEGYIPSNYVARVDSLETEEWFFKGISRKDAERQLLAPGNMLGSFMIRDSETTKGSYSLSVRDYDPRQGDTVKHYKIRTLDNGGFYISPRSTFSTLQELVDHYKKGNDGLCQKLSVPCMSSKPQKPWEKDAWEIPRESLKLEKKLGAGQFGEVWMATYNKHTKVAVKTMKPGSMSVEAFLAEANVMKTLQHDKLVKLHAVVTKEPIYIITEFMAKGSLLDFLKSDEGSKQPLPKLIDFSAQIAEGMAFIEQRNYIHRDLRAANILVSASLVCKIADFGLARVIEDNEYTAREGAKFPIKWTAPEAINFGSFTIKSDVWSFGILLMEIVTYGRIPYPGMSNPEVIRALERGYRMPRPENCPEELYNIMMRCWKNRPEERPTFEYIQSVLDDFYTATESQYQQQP
# T10 sequence (O96013 whole entry): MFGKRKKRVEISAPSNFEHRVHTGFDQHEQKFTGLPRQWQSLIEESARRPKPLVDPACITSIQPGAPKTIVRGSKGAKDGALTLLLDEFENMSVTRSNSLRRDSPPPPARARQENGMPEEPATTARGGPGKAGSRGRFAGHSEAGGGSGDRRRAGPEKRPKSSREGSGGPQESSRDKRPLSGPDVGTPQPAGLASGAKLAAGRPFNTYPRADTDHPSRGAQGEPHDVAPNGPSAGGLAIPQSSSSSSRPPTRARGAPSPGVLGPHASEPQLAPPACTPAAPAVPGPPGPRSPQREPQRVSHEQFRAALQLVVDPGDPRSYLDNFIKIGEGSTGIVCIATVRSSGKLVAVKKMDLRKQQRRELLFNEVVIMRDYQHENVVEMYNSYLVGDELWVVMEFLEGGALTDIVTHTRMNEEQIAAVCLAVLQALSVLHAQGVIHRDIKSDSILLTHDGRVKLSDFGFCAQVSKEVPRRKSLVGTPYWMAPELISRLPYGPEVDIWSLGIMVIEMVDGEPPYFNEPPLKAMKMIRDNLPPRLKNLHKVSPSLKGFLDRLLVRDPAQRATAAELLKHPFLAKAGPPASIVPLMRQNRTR
# T34 sequence (O75716 whole entry): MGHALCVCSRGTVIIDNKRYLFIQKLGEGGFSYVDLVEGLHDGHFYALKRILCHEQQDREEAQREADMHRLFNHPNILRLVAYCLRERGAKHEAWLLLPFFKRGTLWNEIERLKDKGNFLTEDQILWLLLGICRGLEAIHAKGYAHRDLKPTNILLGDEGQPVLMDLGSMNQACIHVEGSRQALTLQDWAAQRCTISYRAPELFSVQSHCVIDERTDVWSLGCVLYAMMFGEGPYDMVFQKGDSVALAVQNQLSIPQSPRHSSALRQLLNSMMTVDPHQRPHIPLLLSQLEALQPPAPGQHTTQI
# T3 sequence (O75116 whole entry): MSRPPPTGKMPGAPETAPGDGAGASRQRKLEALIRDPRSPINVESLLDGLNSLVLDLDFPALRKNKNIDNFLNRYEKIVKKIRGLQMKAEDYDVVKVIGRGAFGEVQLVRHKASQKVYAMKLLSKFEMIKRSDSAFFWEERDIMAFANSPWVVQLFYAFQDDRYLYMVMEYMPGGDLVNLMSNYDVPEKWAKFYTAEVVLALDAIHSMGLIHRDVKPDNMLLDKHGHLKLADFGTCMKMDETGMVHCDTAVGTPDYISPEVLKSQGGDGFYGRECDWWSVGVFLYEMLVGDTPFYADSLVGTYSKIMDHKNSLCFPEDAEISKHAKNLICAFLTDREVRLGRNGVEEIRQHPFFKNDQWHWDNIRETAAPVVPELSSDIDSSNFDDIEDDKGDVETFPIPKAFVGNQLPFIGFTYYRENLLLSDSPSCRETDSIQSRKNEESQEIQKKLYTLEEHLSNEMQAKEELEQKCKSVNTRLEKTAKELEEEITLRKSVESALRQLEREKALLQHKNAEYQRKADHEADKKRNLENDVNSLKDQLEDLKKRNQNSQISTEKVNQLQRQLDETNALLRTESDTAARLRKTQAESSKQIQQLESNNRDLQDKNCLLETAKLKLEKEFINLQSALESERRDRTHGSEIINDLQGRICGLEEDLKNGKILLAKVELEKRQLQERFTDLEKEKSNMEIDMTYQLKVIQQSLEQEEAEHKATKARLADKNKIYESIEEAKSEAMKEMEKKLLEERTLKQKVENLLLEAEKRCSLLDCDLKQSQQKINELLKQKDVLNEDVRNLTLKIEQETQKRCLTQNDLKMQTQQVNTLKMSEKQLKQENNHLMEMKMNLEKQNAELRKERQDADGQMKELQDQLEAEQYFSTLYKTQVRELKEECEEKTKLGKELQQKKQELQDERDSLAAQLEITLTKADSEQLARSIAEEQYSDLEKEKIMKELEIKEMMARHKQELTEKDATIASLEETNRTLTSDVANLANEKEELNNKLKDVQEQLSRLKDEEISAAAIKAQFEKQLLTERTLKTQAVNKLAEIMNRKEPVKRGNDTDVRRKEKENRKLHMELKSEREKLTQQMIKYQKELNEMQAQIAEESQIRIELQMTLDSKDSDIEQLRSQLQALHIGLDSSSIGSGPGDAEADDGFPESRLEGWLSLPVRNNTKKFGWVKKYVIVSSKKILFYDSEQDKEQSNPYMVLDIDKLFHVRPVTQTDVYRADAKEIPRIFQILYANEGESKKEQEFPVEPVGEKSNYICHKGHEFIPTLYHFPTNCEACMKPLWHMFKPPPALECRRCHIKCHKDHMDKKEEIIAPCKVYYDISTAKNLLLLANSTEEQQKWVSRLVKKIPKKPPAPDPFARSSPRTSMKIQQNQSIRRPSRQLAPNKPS
# T12 sequence (Q9Y5S2 whole entry): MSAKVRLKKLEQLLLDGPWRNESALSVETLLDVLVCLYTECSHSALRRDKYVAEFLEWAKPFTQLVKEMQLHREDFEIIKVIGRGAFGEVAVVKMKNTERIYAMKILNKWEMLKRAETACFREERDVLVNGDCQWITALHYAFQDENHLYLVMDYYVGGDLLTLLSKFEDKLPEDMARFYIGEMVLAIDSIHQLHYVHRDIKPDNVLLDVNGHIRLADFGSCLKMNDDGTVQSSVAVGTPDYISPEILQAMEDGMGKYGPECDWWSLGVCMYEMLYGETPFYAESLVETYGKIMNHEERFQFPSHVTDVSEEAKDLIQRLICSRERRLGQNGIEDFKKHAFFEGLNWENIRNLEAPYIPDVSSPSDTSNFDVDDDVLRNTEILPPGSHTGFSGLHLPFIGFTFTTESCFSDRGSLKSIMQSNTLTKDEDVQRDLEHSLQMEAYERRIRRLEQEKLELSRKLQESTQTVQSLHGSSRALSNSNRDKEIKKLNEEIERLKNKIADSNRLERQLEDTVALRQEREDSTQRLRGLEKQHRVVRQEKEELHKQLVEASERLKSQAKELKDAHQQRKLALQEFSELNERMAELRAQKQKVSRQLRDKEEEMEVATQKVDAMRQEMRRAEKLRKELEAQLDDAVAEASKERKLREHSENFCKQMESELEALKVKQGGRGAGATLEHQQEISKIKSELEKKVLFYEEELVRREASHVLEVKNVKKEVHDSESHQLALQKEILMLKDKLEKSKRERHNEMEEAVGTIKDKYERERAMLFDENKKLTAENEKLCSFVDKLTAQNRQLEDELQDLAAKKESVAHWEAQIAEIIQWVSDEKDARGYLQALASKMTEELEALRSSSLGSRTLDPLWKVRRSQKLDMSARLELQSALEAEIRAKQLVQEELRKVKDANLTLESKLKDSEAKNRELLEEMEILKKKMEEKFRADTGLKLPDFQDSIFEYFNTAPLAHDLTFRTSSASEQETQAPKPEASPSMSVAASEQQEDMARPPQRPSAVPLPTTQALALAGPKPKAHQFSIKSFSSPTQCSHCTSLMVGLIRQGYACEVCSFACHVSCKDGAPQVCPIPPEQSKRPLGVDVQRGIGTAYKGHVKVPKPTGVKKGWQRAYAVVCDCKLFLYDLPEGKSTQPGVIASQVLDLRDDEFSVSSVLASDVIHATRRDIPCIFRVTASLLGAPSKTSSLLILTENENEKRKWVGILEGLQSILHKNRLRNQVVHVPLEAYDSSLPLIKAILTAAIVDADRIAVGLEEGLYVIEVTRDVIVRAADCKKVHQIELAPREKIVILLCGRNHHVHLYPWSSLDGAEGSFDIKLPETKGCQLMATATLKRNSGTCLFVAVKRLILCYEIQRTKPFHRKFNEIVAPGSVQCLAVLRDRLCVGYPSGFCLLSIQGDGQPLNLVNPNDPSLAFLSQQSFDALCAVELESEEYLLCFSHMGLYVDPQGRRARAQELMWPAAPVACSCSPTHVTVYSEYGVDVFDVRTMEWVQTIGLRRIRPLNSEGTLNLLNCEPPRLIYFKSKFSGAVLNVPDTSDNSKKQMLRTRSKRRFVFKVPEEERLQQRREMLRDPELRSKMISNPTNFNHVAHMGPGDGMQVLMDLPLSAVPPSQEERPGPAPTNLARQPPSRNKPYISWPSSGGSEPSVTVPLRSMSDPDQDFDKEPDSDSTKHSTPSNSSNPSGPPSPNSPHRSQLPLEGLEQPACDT
smiles,measurement,setting,value
Cc1nc(NC(=O)[C@@H](N)C(C)C)sc1-c1cnc(Cl)c(NS(=O)(=O)c2ccccc2)c1 [PI3KD-IN-015],KinomeScan CSNK1A1L,[1],100
same,KinomeScan GRK1,[2],99
same,KinomeScan ROCK2,[3],85
same,KinomeScan p38-beta,[4],86
same,KinomeScan MUSK,[5],96
same,KinomeScan SIK2,[6],95
same,KinomeScan FLT3,[7],100
same,KinomeScan ABL1(T315I)-nonphosphorylated,[8],100
same,KinomeScan DYRK2,[9],100
same,KinomeScan PAK4,[10],100
same,KinomeScan EPHB4,[11],100
same,KinomeScan MRCKB,[12],91
same,KinomeScan PIK3CD,[13],0
same,KinomeScan ABL1(M351T)-phosphorylated,[14],98
same,KinomeScan HCK,[15],100
same,KinomeScan HPK1,[16],87
same,KinomeScan CSNK1A1,[17],100
same,KinomeScan EGFR(S752-I759del),[18],100
same,KinomeScan AAK1,[19],100
same,KinomeScan NEK4,[20],98
same,KinomeScan FLT3(R834Q),[21],84
same,KinomeScan ABL1(Q252H)-nonphosphorylated,[22],100
same,KinomeScan LATS1,[23],98
same,KinomeScan TBK1,[24],100
same,KinomeScan DAPK1,[25],98
same,KinomeScan CLK4,[26],100
same,KinomeScan TYK2(JH1domain-catalytic),[27],100
same,KinomeScan MET(M1250T),[28],74
same,KinomeScan ACVRL1,[29],100
same,EC50,[30],0.013 µM
same,KinomeScan PAK6,[31],91
same,KinomeScan RSK1(Kin.Dom.2-C-terminal),[32],96
same,KinomeScan WNK3,[33],100
same,KinomeScan CHEK2,[34],88
same,KinomeScan STK16,[35],91
same,KinomeScan CSF1R,[36],67
same,IC50,[37],> 10 µM
same,KinomeScan CASK,[38],95
same,KinomeScan BRK,[39],92
